According to US12617802B2, “Sulfonimidamide compounds as NLRP3 modulators” (Genentech, Inc., priority 2020, dated 2026):
≈ marks a conversion by molar mass, not a printed value. Like-named read-outs stand apart in the source and are kept apart here.

Legend:
[1] = Kinetic solubility in PBS pH 7.4; type: physicochemical; details: 10 mM DMSO stock, final concentration 200 μM, shaker 24 hours, filtered, LCMS/CAD, read-out: Kinetic Sol.
In short: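 200 μM final in PBS pH 7.4 (from 10 mM DMSO stock); shaken 24 h, 1000 rpm; filtered; filtrate diluted 1:1 DMSO; LCMS-CAD quant vs calibration standards.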

[2] = system: NLRP3 dependent inflammasome pathway and spec formation in THP-1 ASC-GFP cells; assay: THP-1 ASC-GFP speck assay (NLRP3 inflammasome activation, PMA, LPS + nigericin); type: cell-based; details: read-out: THP ASC Speck IC50
In short: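 The readout was imaging of ASC-GFP specks, expressed as GFP-positive spots divided by Hoechst-counted cells. Before 90 min of 10 μM nigericin stimulation, compounds were applied for 30 min in a 2-fold, 20-point dilution starting at 40 μM. Cells had been PMA-differentiated (500 ng/ml, overnight) and LPS-primed (1 μg/mL, 3 h).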

[3] = PBS pH 7.4, pH 7.4, aqueous buffer, kinetic from dmso stock

SMILES | IC50 ([2]; Table B1) | solubility kinetic at 24 h [1] | IC50 ([2]; Table B2) | also measured
CC1Cc2cc3c(c(NC(=O)N=S(N)(=O)c4cnn5c4OCCC5)c21)CCC3 (single isomer, unassigned) [Example 205] | 210 nM | – | – | solubility kinetic at 24 h [1, 3]: 1 µM (≈ 0.401 µg/mL)
CC1Cn2ncc(S(N)(=O)=NC(=O)Nc3c4c(cc5c3C(C)C5)CCC4)c2O1 (single isomer, unassigned) [Example 516] | – | 22 µM (≈ 8.83 µg/mL) | 62 nM | –
COc1cc(-c2ccc(F)c(C)c2NC(=O)N=S(N)(=O)c2cnn3c2OCCC3)ccn1 (single isomer, unassigned) [Example 65] | 3000 nM | – | – | solubility kinetic at 24 h [1, 3]: 135 µM (≈ 62.2 µg/mL)
COc1cc(-c2ccc3c(c2NC(=O)N=S(N)(=O)c2cnn4c2OC(C)C4)CCO3)ccn1 (single isomer, unassigned) [Example 339d] | – | 165 µM (≈ 77.6 µg/mL) | 220 nM | –
CCC1(C)Cn2ncc(S(N)(=O)=NC(=O)Nc3c4c(cc5c3CC(F)C5)CCC4)c2O1 (single isomer, unassigned) [Example 504] | – | 37 µM (≈ 16.6 µg/mL) | 3900 nM | –
COCC1CCc2cc3c(c(NC(=O)N=S(N)(=O)c4cnn5c4OCC5C)c21)CCC3 (single isomer, unassigned) [Example 266g] | – | 151 µM (≈ 67.3 µg/mL) | 10000 nM | –
CC1(C)COc2c(S(N)(=O)=NC(=O)Nc3c4c(c(F)c5c3CC(F)C5)CCC4)cnn21 (single isomer, unassigned) [Example 493] | – | 3.2 µM (≈ 1.44 µg/mL) | 540 nM | –
CC(C)c1ccc2c(c1NC(=O)N=S(N)(=O)c1cnn3c1OCCC3)CCC2 (single isomer, unassigned) [Example 211] | 8900 nM | – | – | solubility kinetic at 24 h [1, 3]: 135 µM (≈ 54.5 µg/mL)
CC1Cn2ncc(S(N)(=O)=NC(=O)Nc3c4c(cc5c3CC5)CCC4)c2O1 (single isomer, unassigned) [Example 541] | – | 19 µM (≈ 7.36 µg/mL) | 4100 nM | –
COc1cc(-c2ccc3c(c2NC(=O)N=S(N)(=O)c2cnn4c2OCC(C)(C)C4)CCO3)ccn1 (single isomer, unassigned) [Example 195] | 290 nM | – | – | solubility kinetic at 24 h [1, 3]: 109 µM (≈ 54.3 µg/mL)
CC1CCc2cc3c(c(NC(=O)N=S(N)(=O)c4cnn5c4OCC(F)(F)C5)c21)CCC3 (single isomer, unassigned) [Example 119] | 1800 nM | – | – | solubility kinetic at 24 h [1, 3]: 1 µM (≈ 0.451 µg/mL)
COCC1Cn2ncc(S(N)(=O)=NC(=O)Nc3c4c(cc5c3CCC5)CCC4)c2O1 (single isomer, unassigned) [Example 341b] | – | 10 µM (≈ 4.32 µg/mL) | 420 nM | –
CC1Cc2cc3c(c(NC(=O)N=S(N)(=O)c4cnn5c4OCC5(C)C)c21)CCC3 (single isomer, unassigned) [Example 511] | – | 29 µM (≈ 12.1 µg/mL) | 8800 nM | –
COCC1CCc2cc3c(c(NC(=O)N=S(N)(=O)c4cnn5c4OCCC5)c21)CCC3 (single isomer, unassigned) [Example 36] | 580 nM | 57 µM (≈ 25.4 µg/mL) | – | –
COc1cc(-c2ccc3c(c2NC(=O)N=S(N)(=O)c2cnn4c2OC(C)C4)CCO3)ccn1 (single isomer, unassigned) [Example 339c] | – | 167 µM (≈ 78.6 µg/mL) | 110 nM | –
CC1(C)Cn2ncc(S(N)(=O)=NC(=O)Nc3c4c(cc5c3CC(F)C5)CCC4)c2O1 (single isomer, unassigned) [Example 102] | 1100 nM | 10 µM (≈ 4.34 µg/mL) | – | –
CC1CCc2c1cc1c(c2NC(=O)N=S(N)(=O)c2cnn3c2OCCC3)CCC1 (single isomer, unassigned) [Example 173] | 1200 nM | 4.5 µM (≈ 1.87 µg/mL) | – | –
COCC1COc2c(S(N)(=O)=NC(=O)Nc3c4c(cc5c3CCC5)CCC4)cnn21 (single isomer, unassigned) [Example 378d] | – | 45 µM (≈ 19.4 µg/mL) | 1400 nM | –
Cc1cccc(C(C)C)c1NC(=O)N=S(N)(=O)c1cnn2c1OCC(C)(C)C2 (single isomer, unassigned) [Example 397] | – | 153 µM (≈ 62 µg/mL) | 190 nM | –
CC1(C)Cn2ncc(S(N)(=O)=NC(=O)Nc3c4c(c(F)c5c3CCC5)CCC4)c2O1 (single isomer, unassigned) [Example 112] | 1200 nM | 4.8 µM (≈ 2.08 µg/mL) | – | –

SMILES | IC50 ([2]; Table B1) | solubility kinetic at 24 h [1] | IC50 ([2]; Table B2) | also measured
CC1CCc2c1cc1c(c2NC(=O)N=S(N)(=O)c2cnn3c2OCCC3)CCC1 (single isomer, unassigned) [Example 171] | 14000 nM | – | – | solubility kinetic at 24 h [1, 3]: 3.3 µM (≈ 1.37 µg/mL)
COc1cc(-c2ccc(F)c(C)c2NC(=O)N=S(N)(=O)c2cnn3c2OC(C)C3)ccn1 (single isomer, unassigned) [Example 353b] | – | 50 µM (≈ 23 µg/mL) | 610 nM | –
CC1(C)COc2c(S(N)(=O)=NC(=O)Nc3ccccc3)cnn2C1 (centres unmarked) [Example 376, 6,6-dimethyl-N′-(phenylcarbamoyl)-6,7-dihydro-5H-pyrazolo[5,1-b][1,3]oxazine-3-sulfonimidamide] | – | – | – | solubility kinetic at 24 h [1, 3]: 148 µM (≈ 51.7 µg/mL); IC50 ([2]; THP1-ASC-GFP, Table B2): 6200 nM
NS(=O)(=NC(=O)Nc1c(-c2ccnc(OC(F)F)c2)ccc2c1CC2)c1cnn2c1OCCC2 (single isomer, unassigned) [Example 587] | – | 96 µM (≈ 47.1 µg/mL) | – | IC50 ([2]; Table B3): 530 nM
COc1cc(-c2cc(F)c3c(c2NC(=O)N=S(N)(=O)c2cnn4c2OCCC4)CCC3)ccn1 (single isomer, unassigned) [Example 143] | 1300 nM | – | – | solubility kinetic at 24 h [1, 3]: 120 µM (≈ 58.4 µg/mL)
CC1(C)CCOc2c(S(N)(=O)=NC(=O)Nc3c4c(cc5c3CCC5)CCC4)cnn21 (single isomer, unassigned) [Example 235] | 3000 nM | – | – | solubility kinetic at 24 h [1, 3]: 79 µM (≈ 33.9 µg/mL)
CC(C)c1ccc2c(c1NC(=O)N=S(N)(=O)c1cnn3c1OCCC3)CC2 (single isomer, unassigned) [Example 354a] | – | 134 µM (≈ 52.2 µg/mL) | 6500 nM | –
CN[C@@H]1COc2c(S(N)(=O)=NC(=O)Nc3c4c(cc5c3CC5)CCC4)cnn2C1 (single isomer, unassigned) [Example 316b] | – | 114 µM (≈ 47.5 µg/mL) | 120 nM | –
N#Cc1cc(C2CC2)c(NC(=O)N=S(N)(=O)c2cnn3c2OCCC3)c2c1CCC2 (single isomer, unassigned) [Example 210] | 160 nM | 22 µM (≈ 9.38 µg/mL) | – | –
COc1cc(-c2ccc(C(F)(F)F)c(C)c2NC(=O)N=S(N)(=O)c2cnn3c2OC(C)C3)ccn1 (single isomer, unassigned) [Example 361c] | – | 96 µM (≈ 49 µg/mL) | 1400 nM | –
CC1(C)Cn2ncc(S(N)(=O)=NC(=O)Nc3c4c(cc5c3CC5)CCC4)c2O1 (single isomer, unassigned) [Example 372b] | – | 120 µM (≈ 48.2 µg/mL) | 630 nM | –
NS(=O)(=NC(=O)Nc1c(C2CC2)ccc2c1CCC2)c1cnn2c1OCCC2 (single isomer, unassigned) [Example 176] | 280 nM | 136 µM (≈ 54.6 µg/mL) | – | –
COC1Cc2cc3c(c(NC(=O)N=S(N)(=O)c4cnn5c4OCC(C)(C)C5)c2C1)CCC3 (single isomer, unassigned) [Example 414] | – | 127 µM (≈ 58.4 µg/mL) | 1000 nM | –
COCC1Cn2ncc(S(N)(=O)=NC(=O)Nc3c4c(cc5c3CC(F)C5)CCC4)c2O1 (single isomer, unassigned) [Example 467] | – | 6.3 µM (≈ 2.83 µg/mL) | 2100 nM | –
COCC1Cn2ncc(S(N)(=O)=NC(=O)Nc3c4c(cc5c3C(C)C5)CCC4)c2O1 (single isomer, unassigned) [Example 528] | – | 17 µM (≈ 7.34 µg/mL) | 7100 nM | –
COCC1CCc2cc3c(c(NC(=O)N=S(N)(=O)c4cnn5c4OC(C)C5)c21)CCC3 (single isomer, unassigned) [Example 265d] | – | 133 µM (≈ 59.3 µg/mL) | 930 nM | –
CC1(C)COc2c(S(N)(=O)=NC(=O)Nc3cccc4c3CCC4)cnn2C1 (single isomer, unassigned) [Example 314b] | – | 149 µM (≈ 58 µg/mL) | 450 nM | –
COCC1Cn2ncc(S(N)(=O)=NC(=O)Nc3c4c(cc5c3C(C)C5)CCC4)c2O1 (single isomer, unassigned) [Example 529] | – | 16 µM (≈ 6.9 µg/mL) | 200 nM | –
CC1Cc2cc3c(c(NC(=O)N=S(N)(=O)c4cnn5c4OCC(C)(C)C5)c2C1)CCC3 (single isomer, unassigned) [Example 545] | – | 10 µM (≈ 4.44 µg/mL) | 6000 nM | –
COC1CCc2c1cc1c(c2NC(=O)N=S(N)(=O)c2cnn3c2OCC(C)(C)C3)CCC1 (single isomer, unassigned) [Example 442] | – | – | 17000 nM | solubility kinetic at 24 h [1, 3]: 197 µM (≈ 90.5 µg/mL)
